Data taken from patent US8030336B2, “Nicotinamide-based kinase inhibitors” (YM Biosciences Australia Pty Ltd, priority 2002, dated 2011).

Assays:
Assay type in all cases: biochemical
fes = fes (Homo sapiens, UniProt P07332); assay: fes kinase assay (ELISA or Alphascreen); conditions: read-out: fes inhibition of enzyme activity
Protocol: (§1) Kinase assays were performed in a 96 well capture-based ELISA assay or in 384 well Optiplates (Packard) using an Alphascreen Protein Tyrosine Kinase kit. In either case using approximately 1.5 μg of affinity purified PTK domain in the presence of 50 mM HEPES, pH 7.5, 10 mM MgCl2, 150 mM NaCl and 10 μM-1 mM ATP. The biotinylated substrate biotin-EGPWLEEEEEAYGWMDF-NH2 (SEQ ID NO:9) (final concentration 5 μM) was used as substrate. In the ELISA assay tyrosine phosphorylation was quantitated following transfer to an avidin coated ELISA plate using peroxidase-linked anti-phosphotyrosine antibody PY20. In the Alphascreen assay, Alphascreen phosphotyrosine acceptor beads followed by streptavidin donor beads were added under subdued light. The ELISA plates were read on a BMG Fluorostar, the Alphascreen plates were read on a Packard Fusion Alpha. Inhibitors were added to the assays fifteen minutes prior to the addition of ATP. Inhibitors were added in aqueous […] concentrations never exceeding 1%.

abl = molecular target: T1, abl (Homo sapiens, UniProt P00519); assay: abl kinase assay (ELISA or Alphascreen); conditions: read-out: abl inhibition of enzyme activity
T1 sequence (P00519 242-493 limits assumed): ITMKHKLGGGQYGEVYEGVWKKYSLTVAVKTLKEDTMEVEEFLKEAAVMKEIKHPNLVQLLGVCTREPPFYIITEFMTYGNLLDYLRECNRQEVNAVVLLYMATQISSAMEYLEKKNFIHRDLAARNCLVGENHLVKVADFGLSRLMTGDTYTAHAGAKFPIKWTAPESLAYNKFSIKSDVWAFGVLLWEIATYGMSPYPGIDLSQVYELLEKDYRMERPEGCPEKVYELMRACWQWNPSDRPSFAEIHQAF
Protocol: as §1

human JAK2 = molecular target: T2, human JAK2 (Homo sapiens, UniProt O60674); assay: JAK2 kinase assay (ELISA or Alphascreen); conditions: read-out: Jak2 inhibition of enzyme activity
T2 construct: The kinase domain of human JAK2 was amplified from U937mRNA; His tag (from the pFastBac HTc vector) (N); made in house; host or cells: baculovirus; Sf9 for virus, High Five insect cells for production
T2 sequence (O60674 849-1124 limits assumed): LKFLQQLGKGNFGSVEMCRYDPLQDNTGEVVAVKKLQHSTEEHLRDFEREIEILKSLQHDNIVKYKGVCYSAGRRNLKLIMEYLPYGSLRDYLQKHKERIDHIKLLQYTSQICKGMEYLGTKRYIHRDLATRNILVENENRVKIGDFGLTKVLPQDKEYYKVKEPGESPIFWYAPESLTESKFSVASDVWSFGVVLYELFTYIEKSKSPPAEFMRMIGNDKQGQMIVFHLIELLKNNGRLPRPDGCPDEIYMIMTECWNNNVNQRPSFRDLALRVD
From the text: The kinase domain of human JAK2 was amplified from U937mRNA using the polymerase chain reaction with the following primers: […]
JAK2 PCR products were doped into the pFastBac HTc expression vector (Gibco) via the Sal I and Not I sites. The JAK2 plasmid was than transformed into competent DH10Bac cells (Gibco), and the recombinant baculovirus produced prepared for transfection into Sf9 insect cells.
(§2) Baculovirus preparations from each of the JAK family members were infected into five liters of High Five cells (Invitrogen) grown in High Five serum free medium (Invitrogen) to a cell density of approximately 1-2×10^6 cells/ml. Cells are infected with virus at a MOI of 0.8-3.0. Cells were harvested and lysed. JAK kinase domains were purified by affinity chromatography on a Probond (Invitrogen) nickel chelate affinity column.
as §1

Zap70 = molecular target: T3, Zap70 (Homo sapiens, UniProt P43403); assay: Zap70 kinase assay (ELISA or Alphascreen); conditions: read-out: Zap70 inhibition of enzyme activity
T3 sequence (P43403 338-600 limits assumed): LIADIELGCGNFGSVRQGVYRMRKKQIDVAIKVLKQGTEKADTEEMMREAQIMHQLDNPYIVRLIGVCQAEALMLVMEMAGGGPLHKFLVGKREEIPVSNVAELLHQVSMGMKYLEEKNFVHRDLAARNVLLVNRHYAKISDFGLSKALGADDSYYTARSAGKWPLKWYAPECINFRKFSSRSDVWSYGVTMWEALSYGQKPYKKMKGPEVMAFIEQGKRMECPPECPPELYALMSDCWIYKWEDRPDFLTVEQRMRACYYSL
Protocol: as §1

human JAK3 = molecular target: T4, human JAK3 (Homo sapiens, UniProt P52333); assay: JAK3 kinase assay (ELISA or Alphascreen); conditions: read-out: Jak3 inhibition of enzyme activity
T4 construct: The kinase domain of human JAK3 was amplified from U937mRNA; His tag (from the pFastBac HTb vector) (N); made in house; host or cells: baculovirus; Sf9 for virus, High Five insect cells for production
T4 sequence (P52333 822-1111 limits assumed): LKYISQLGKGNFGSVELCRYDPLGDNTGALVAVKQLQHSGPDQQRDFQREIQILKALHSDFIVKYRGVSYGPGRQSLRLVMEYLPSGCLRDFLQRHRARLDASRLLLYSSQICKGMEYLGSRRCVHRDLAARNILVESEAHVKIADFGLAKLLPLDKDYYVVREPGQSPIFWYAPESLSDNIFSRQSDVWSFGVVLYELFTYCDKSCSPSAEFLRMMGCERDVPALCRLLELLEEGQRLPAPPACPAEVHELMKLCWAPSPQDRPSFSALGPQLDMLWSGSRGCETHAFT
From the text: The kinase domain of human JAK3 was amplified from U937mRNA using the polymerase chain reaction with the following primers: […]
JAK3 PCR products were cloned into the pFastBac HTb expression vector (Gibco) via the Xho I and Kpn I sites. The JAK3 plasmid was then transformed into competent DH10Bac cells (Gibco), and the recombinant baculovirus produced prepared for transfection into Sf9 insect cells.
as §2, §1

hck = hck (Homo sapiens, UniProt P08631); assay: hck kinase assay (ELISA or Alphascreen); conditions: read-out: hck inhibition of enzyme activity
hck, sequence (P08631 262-515 limits assumed, species assumed): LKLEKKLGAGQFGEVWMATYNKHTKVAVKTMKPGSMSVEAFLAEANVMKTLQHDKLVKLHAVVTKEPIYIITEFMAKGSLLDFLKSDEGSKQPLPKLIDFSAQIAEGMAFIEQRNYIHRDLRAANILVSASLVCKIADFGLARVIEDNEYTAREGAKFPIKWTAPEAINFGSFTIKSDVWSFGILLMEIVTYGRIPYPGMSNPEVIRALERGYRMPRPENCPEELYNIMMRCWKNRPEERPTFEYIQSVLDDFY
Protocol: as §1

fes, sequence (P07332 561-822 limits assumed, species assumed): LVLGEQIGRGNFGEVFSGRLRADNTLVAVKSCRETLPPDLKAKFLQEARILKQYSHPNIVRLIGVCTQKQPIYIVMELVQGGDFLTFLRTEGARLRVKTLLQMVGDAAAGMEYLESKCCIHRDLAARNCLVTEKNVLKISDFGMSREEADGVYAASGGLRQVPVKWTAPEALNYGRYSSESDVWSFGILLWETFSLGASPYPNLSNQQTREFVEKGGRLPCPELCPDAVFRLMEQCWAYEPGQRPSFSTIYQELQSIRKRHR

| SMILES | inhibition at 10 µM (fes) [%] | inhibition at 10 µM (abl) [%] | inhibition at 10 µM (human JAK2) [%] | inhibition at 10 µM (Zap70) [%] | inhibition at 10 µM (human JAK3) [%] | inhibition at 10 µM (hck) [%] |
| --- | --- | --- | --- | --- | --- | --- |
| COc1ccc(NC(=O)c2cncc(-c3ccc(O)cc3)c2)c(OC)c1 |  | < 50 | < 50 | < 50 | < 50 | < 50 |
| CC(NC(=O)c1cncc(-c2ccc(O)cc2)c1)c1ccc(F)cc1 (centres unmarked) | < 50 | < 50 | < 50 | < 50 | < 50 | < 50 |
| Cc1cc(-c2cncc(C(=O)N[C@H](C)c3ccccc3)c2)cc(C)c1O | < 50 | < 50 | < 50 | < 50 |  | < 50 |
| O=C(NCCc1ccccc1)c1cncc(-c2ccc3c(c2)OCO3)c1 | < 50 | < 50 | < 50 | < 50 | < 50 | < 50 |
| Cc1ccccc1NC(=O)c1cncc(-c2ccc3c(c2)OCO3)c1 | < 50 | < 50 | < 50 | < 50 | < 50 | ≥ 50 |
| Cc1ccccc1NC(=O)c1cncc(-c2cccs2)c1 | < 50 | < 50 | < 50 | < 50 | < 50 | ≥ 50 |
| COc1ccc(CNC(=O)c2cncc(-c3cccnc3)c2)cc1 | < 50 | < 50 | < 50 | < 50 | < 50 | < 50 |
| Cc1cc(F)ccc1NC(=O)c1cncc(-c2ccc(F)cc2)c1 | < 50 | < 50 | < 50 | < 50 | < 50 | < 50 |
| COc1cccc(-c2cncc(C(=O)N[C@H](C)c3ccccc3)c2)c1 | < 50 | < 50 | < 50 | < 50 | < 50 | < 50 |
| COc1cccc(-c2cncc(C(=O)N[C@@H](C)c3ccccc3)c2)c1 | < 50 | < 50 | < 50 | < 50 | < 50 | < 50 |

Further lines, results first:

| inhibition at 10 µM (fes) [%] | inhibition at 10 µM (abl) [%] | inhibition at 10 µM (human JAK2) [%] | inhibition at 10 µM (Zap70) [%] | inhibition at 10 µM (human JAK3) [%] | inhibition at 10 µM (hck) [%] | SMILES |
| --- | --- | --- | --- | --- | --- | --- |
| < 50 | < 50 | < 50 | < 50 | < 50 | < 50 | O=C(NCc1ccc(Cl)c(Cl)c1)c1cncc(-c2ccc(O)cc2)c1 |
| < 50 | < 50 |  | < 50 | < 50 | < 50 | O=C(NCc1cccc(F)c1)c1cncc(-c2ccc(O)cc2)c1 |
| < 50 | < 50 | < 50 | < 50 | < 50 | < 50 | Cc1ccc(CNC(=O)c2cncc(-c3ccc(O)cc3)c2)cc1 |
|  | < 50 | < 50 | < 50 | < 50 | < 50 | O=C(NCCO)c1cncc(-c2ccc3c(c2)OCO3)c1 |
| < 50 | < 50 | < 50 | < 50 | < 50 | < 50 | O=C(NCc1cccc(F)c1)c1cncc(-c2ccc3c(c2)OCO3)c1 |
| < 50 | < 50 | < 50 | < 50 | < 50 | < 50 | C[C@@H](NC(=O)c1cncc(-c2cccs2)c1)c1ccccc1 |
| < 50 | < 50 | < 50 | < 50 | < 50 | < 50 | O=C(NCCc1ccccc1)c1cncc(-c2cccs2)c1 |
